Here are results for 12 molecules from ChEMBL document CHEMBL1201862, “PubChem BioAssay data set” (2004).

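Dose response: 5 concentrations. Exposure: 48 h. Format: 96-well plates. Endpoint: linear interpolation; highest concentration if not reached. GI50: concentration for 50% inhibition of growth.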 Activity calls are given as the source filed them. No stated cut-off is given here; in the data, active = GI50 up to about 1.1 µM and inactive = higher. A value given as a limit tells only on which side of the number the result lay.

Some test systems named below: A498; HCT-15; IGROV-1; LOX IMVI; M14; MCF7; MDA-MB-231; MDA-N; OVCAR-3; OVCAR-5; RPMI-8226; SF-295; SK-MEL-28; SN12C; SR; UACC-257; MOLT-4; SK-OV-3; TK-10; Hs-578T.
Common to all, as to assay: NCI-60 cell line screen, 48 h

For `CC1(C)OC2COC3([C@@H]4OC(C)(C)O[C@@H]4CO)OC(C)(C)OC3C2O1` (stereo partly drawn), the GI50 with A498 was > 100 µM (inactive); in the experiment with HCT-15 it was > 100 µM; in the experiment on IGROV-1 it was > 100 µM (inactive); with LOX IMVI, > 100 µM (inactive); in the experiment on M14 it was > 100 µM (inactive); with MCF7, > 100 µM (inactive). In addition, the GI50 in the experiment on MDA-MB-231, with MDA-N, in the experiment on OVCAR-3, in the experiment with OVCAR-5, with RPMI-8226 and in the experiment on SF-295 was > 100 µM (inactive) each time. Also, the GI50 in the experiment with SK-MEL-28, in the experiment on SN12C, in the experiment with SR and with UACC-257 was > 100 µM (inactive) each time.

For `Cc1nc2c(cc1C(=O)NN)c(=O)n(C)c(=O)n2C`, the GI50 was > 100 µM with HCT-15; > 100 µM (inactive) with IGROV-1; > 100 µM (inactive) in the experiment with M14; > 100 µM (inactive) in the experiment with MCF7; > 100 µM (inactive) with MDA-MB-231; > 100 µM (inactive) in the experiment with MDA-N. In addition, the GI50 in the experiment on MOLT-4, with OVCAR-3, in the experiment with OVCAR-5, in the experiment with RPMI-8226, in the experiment on SF-295 and in the experiment with SK-MEL-28 was > 100 µM (inactive) in each case. Further, the GI50 in the experiment on SK-OV-3, in the experiment with SN12C, in the experiment on TK-10 and with UACC-257 was > 100 µM (inactive) in each case.

In the case of `Cc1ccc(S(=O)(=O)OCC23CCC(C2)C2CC23)cc1` (stereo not drawn), the GI50 was > 100 µM (inactive) in the experiment on A498; > 100 µM in the experiment on HCT-15; > 100 µM (inactive) in the experiment on IGROV-1; > 100 µM (inactive) in the experiment on LOX IMVI; > 100 µM (inactive) in the experiment on M14; > 100 µM (inactive) in the experiment on MOLT-4. Also, the GI50 is > 100 µM (inactive) in the experiment with OVCAR-3; > 100 µM (inactive) with OVCAR-5; 90.4 µM (inactive) in the experiment on RPMI-8226; > 100 µM (inactive) with SF-295; > 100 µM (inactive) in the experiment on SK-MEL-28; > 100 µM (inactive) in the experiment on SK-OV-3. The GI50 in the experiment with SN12C is > 100 µM (inactive); in the experiment on SR, > 100 µM (inactive); in the experiment on TK-10 it was > 100 µM (inactive); with UACC-257, 52.1 µM (inactive).

For `NC(Cc1c2ccccc2cc2ccccc12)C(=O)O` (stereo not drawn), the GI50 with HCT-15 is 68.1 µM; in the experiment on IGROV-1, 48.3 µM (inactive); with LOX IMVI, > 100 µM (inactive); in the experiment on M14, > 100 µM (inactive); with MCF7, > 100 µM (inactive); with MDA-MB-231 it was > 100 µM (inactive). The GI50 is 37 µM (inactive) in the experiment with MOLT-4; > 100 µM (inactive) in the experiment on OVCAR-3; > 100 µM (inactive) in the experiment on OVCAR-5; > 100 µM (inactive) in the experiment with SF-295; > 100 µM (inactive) in the experiment on SK-MEL-28; > 100 µM (inactive) in the experiment with SK-OV-3. The GI50 in the experiment on SN12C is 54.3 µM (inactive); in the experiment on SR it was 68.9 µM (inactive); in the experiment on TK-10, > 100 µM (inactive); in the experiment on UACC-257, > 100 µM (inactive).

Consider `O=C(CCl)N1CCN(c2ccccn2)CC1`, for which the GI50 was 17 µM (inactive) in the experiment on A498; > 10 µM with HCT-15; 42.8 µM (inactive) with Hs-578T; 21.3 µM (inactive) in the experiment with IGROV-1; 16.6 µM (inactive) in the experiment with M14; 23.9 µM (inactive) in the experiment on MCF7. Also, the GI50 with MDA-N was 25.2 µM (inactive); in the experiment on MOLT-4, 31.7 µM (inactive); with OVCAR-5, 20.7 µM (inactive); in the experiment with RPMI-8226, 31.8 µM (inactive); in the experiment with SF-295, > 10 µM (inactive); in the experiment with SK-MEL-28 it was 20 µM (inactive). Also, the GI50 in the experiment with SK-OV-3 is 46.7 µM (inactive); in the experiment with SR, 34.9 µM (inactive); in the experiment with TK-10, 19.5 µM (inactive); in the experiment with UACC-257, 30.3 µM (inactive).

For `Nc1cccc2nnccc12`, the GI50 was > 100 µM in the experiment with HCT-15; > 100 µM (inactive) in the experiment with Hs-578T; > 100 µM (inactive) in the experiment with IGROV-1; > 100 µM (inactive) with M14; > 100 µM (inactive) in the experiment on MCF7; > 100 µM (inactive) with MDA-MB-231. Also, the GI50 in the experiment with MDA-N, in the experiment on OVCAR-5, in the experiment on RPMI-8226, in the experiment on SF-295, with SK-OV-3 and with SN12C was > 100 µM (inactive) throughout. Also, the GI50 in the experiment with TK-10 and in the experiment with UACC-257 was > 100 µM (inactive) each time.

Regarding `O=C1N(c2ccccc2)N=C2c3ccncc3C3=NN(c4ccccc4)C(=O)C123` (stereo not drawn), the GI50 is > 100 µM (inactive) in the experiment with A498; 13.2 µM in the experiment on HCT-15; > 100 µM (inactive) in the experiment on Hs-578T; > 51.9 µM (inactive) in the experiment with IGROV-1; 0.411 µM (active) with LOX IMVI; > 35.6 µM (inactive) in the experiment on MCF7. For the same molecule, the GI50 in the experiment on MDA-MB-231 is > 100 µM (inactive); in the experiment on MOLT-4 it was 0.504 µM (active); in the experiment with OVCAR-3 it was > 100 µM (inactive); with OVCAR-5 it was > 65.2 µM (inactive); with SF-295, 4.37 µM (inactive); with SK-MEL-28, > 22 µM (inactive). Moreover, the GI50 with SK-OV-3 is > 100 µM (inactive); in the experiment on SN12C, > 100 µM (inactive); in the experiment with SR, 79.6 µM (inactive); in the experiment with TK-10, > 100 µM (inactive); in the experiment with UACC-257 it was 27.1 µM (inactive).

Take `CC(C)c1c2[nH]c3ccccc3c2c(C(C)C)c2[nH]c3ccccc3c12`: the GI50 is > 100 µM (inactive) in the experiment on A498; 16 µM with HCT-15; > 100 µM (inactive) in the experiment on IGROV-1; 35.5 µM (inactive) with LOX IMVI; > 74.8 µM (inactive) with M14; > 63.2 µM (inactive) in the experiment with MOLT-4. The GI50 in the experiment on OVCAR-3 is > 54.1 µM (inactive); in the experiment on OVCAR-5, 47.5 µM (inactive); in the experiment on RPMI-8226, 17.7 µM (inactive); with SF-295 it was > 65.9 µM (inactive); in the experiment on SK-MEL-28 it was > 100 µM (inactive); in the experiment with SK-OV-3, > 100 µM (inactive). Besides, the GI50 in the experiment with SN12C was 35.6 µM (inactive); in the experiment with SR, 24.7 µM (inactive); in the experiment on TK-10, > 100 µM (inactive); in the experiment on UACC-257 it was > 100 µM (inactive).

For `COC(=O)c1ccccc1CC1Cc2c(C)ccc(C)c2C1=O` (stereo not drawn), the GI50 in the experiment with A498 was 25.8 µM (inactive); in the experiment on HCT-15, 24.6 µM; in the experiment on Hs-578T, 33.3 µM (inactive); in the experiment with IGROV-1, 32 µM (inactive); in the experiment with LOX IMVI, 16.5 µM (inactive); in the experiment on M14 it was 34.8 µM (inactive). The GI50 in the experiment on MCF7 was 11.2 µM (inactive); with MDA-MB-231 it was 16 µM (inactive); with MOLT-4 it was 19.6 µM (inactive); with OVCAR-3 it was 34.4 µM (inactive); in the experiment on OVCAR-5, 49.1 µM (inactive); in the experiment with SF-295 it was 28.7 µM (inactive). For the same molecule, the GI50 with SK-MEL-28 was 48 µM (inactive); with SK-OV-3, 38.6 µM (inactive); with SN12C, 45.3 µM (inactive); in the experiment on TK-10, 20.5 µM (inactive); in the experiment on UACC-257, 16.2 µM (inactive).

Consider `O=S(=O)(O)c1cc(O)c2c(/N=C\c3ccccc3O)cc(S(=O)(=O)O)cc2c1`, for which the GI50 is > 100 µM (inactive) in the experiment with A498; > 100 µM in the experiment on HCT-15; > 100 µM (inactive) in the experiment on IGROV-1; > 100 µM (inactive) in the experiment on LOX IMVI; > 100 µM (inactive) in the experiment on M14; > 100 µM (inactive) in the experiment with MCF7. For the same molecule, the GI50 is > 100 µM (inactive) in the experiment with MDA-MB-231; > 100 µM (inactive) in the experiment with MDA-N; 9.57 µM (inactive) in the experiment with MOLT-4; > 100 µM (inactive) in the experiment on OVCAR-3; > 100 µM (inactive) in the experiment on OVCAR-5; > 100 µM (inactive) in the experiment with RPMI-8226. Moreover, the GI50 in the experiment with SF-295, with SK-MEL-28, in the experiment with SK-OV-3, in the experiment on SN12C, in the experiment with SR and in the experiment on TK-10 was > 100 µM (inactive) each time. In addition, the GI50 in the experiment with UACC-257 was > 100 µM (inactive).

Regarding `Nc1nc2c3c(ncn3CC(O)CO2)n1` (stereo not drawn), the GI50 in the experiment with A498 was > 100 µM (inactive); in the experiment with HCT-15, > 100 µM; with IGROV-1 it was > 100 µM (inactive); in the experiment on LOX IMVI it was > 100 µM (inactive); in the experiment with M14, > 100 µM (inactive); in the experiment with MOLT-4, > 100 µM (inactive). The GI50 in the experiment with OVCAR-3, in the experiment on OVCAR-5, in the experiment with RPMI-8226, in the experiment on SF-295, with SK-MEL-28 and in the experiment with SK-OV-3 was > 100 µM (inactive) in each case. Moreover, the GI50 in the experiment on SN12C, with SR, in the experiment on TK-10 and in the experiment on UACC-257 was > 100 µM (inactive) in each case.

For `Cc1cc(S(N)(=O)=O)c(SCc2nc(N)nc(N(C)C)n2)cc1Cl`, the GI50 in the experiment with A498 is > 10 µM (inactive); in the experiment with HCT-15, > 10 µM; in the experiment on Hs-578T it was > 10 µM (inactive); in the experiment with IGROV-1, > 10 µM (inactive); in the experiment with LOX IMVI, > 10 µM (inactive); in the experiment on M14, > 10 µM (inactive). Besides, the GI50 in the experiment with MCF7, in the experiment on MDA-N, in the experiment on MOLT-4, in the experiment with OVCAR-3, with OVCAR-5 and in the experiment on RPMI-8226 was > 10 µM (inactive) each time. For the same molecule, the GI50 with SF-295, in the experiment with SK-MEL-28, in the experiment on SK-OV-3, with SN12C, with SR and in the experiment on TK-10 was > 10 µM (inactive) throughout. Besides, the GI50 with UACC-257 was > 10 µM (inactive).
